Experimental findings from US20100144767A1, “Use of sodium channel blockers for the treatment of visceral pain or pain caused by cancer treatment” (priority 2005, published 2010) are described below.

Each structure is given as a SMILES string. Several values for one entry are separate records, joined by “and”; a condition that tells them apart may be missing. Equal entries are not always repeated.

Experiment [1] relates to postoperative pain (incised hind paw withdrawal latency). Briefly: Postoperative pain, thermal stimulus, four days of pre-treatment. Format: in vivo, rats. As to the method: The studied compounds (dypirone at 40 mg/kg and tetrodotoxin at 0, 3, 4 μg/kg) were administered subcutaneously to groups of 12 male rats twice daily for 4 days. On the morning of Day 5, an incision was made in the hind paw of the rats. One hour later, the compounds were administered again and 30 minutes later, a thermal stimulus was applied in the incised paw and the latency to withdraw the hind paws was recorded.

For experiment [2] the test system is unchanged. Briefly: Postoperative pain, thermal stimulus, acute treatment (hind paw incision). The settings on record: Rattus norvegicus, iv. Type of experiment: in vivo, rats.
The subject of experiment [3] is capsaicin-induced nociceptive behaviours. Briefly: Visceral pain model: capsaicin solution delivered to the colon, nociceptive behaviours counted for 30 min. Further details: species or system mice. The settings on record: mouse, in vivo.
The subject of experiment [4] is moderate to severe pain associated with cancer. Further details: species or system human. The settings on record: in vivo.
Experiment [5] deals with carrageenan-induced inflammatory pain. Further details: species or system SD rats. As to conditions: rat, in vivo.
Experiment [6] concerns pain (visceral pain, pain caused by therapy). The settings on record: human, in vivo.
For experiment [7], the system named is formalin-induced inflammation. Further details: species or system rats. As to conditions: rat, in vivo.

Regarding `Cc1c(N(C)CS(=O)(=O)[O-])c(=O)n(-c2ccccc2)n1C.[Na+]` [Dypirone, reference compound], the antinociceptive activity in experiment [1] (40 mg/kg s.c. b.i.d., four days of pre-treatment) was found to be 40%.

The term ED50 denotes the dose that gives a 50% effect, or the effect in half of the subjects. Consider `CN1CC[C@]23c4c5ccc(O)c4O[C@H]2[C@@H](O)C=C[C@H]3[C@H]1C5` [Morphine], for which, in experiment [2], the ED50 amounted to 0.59 mg/kg. Further, the “effects on capsaicin-induced nociceptive behaviours versus control” value in experiment [3] is 54.8% and 92.5% and 100%.

As for `N=C1NC(O)C2C3OC4(O)OC(C(O)C2(N1)C4O)C3(O)CO` (stereo not drawn) [Tetrodotoxin, octahydro-12-(hydroxymethyl)-2-imino-5,9:7,10a-dimethano-10aH-[1,3]dioxocino[6,5-d]pyrimidine-4,7,10,11,12-pentol], in experiment [4], the impression of change was determined as 1 and the total response day was found to be 66 days. In addition, the “effects on capsaicin-induced nociceptive behaviours versus control” value in experiment [3] (sc) is 30% and 58.8%. In addition, the “effect upon the degree of inflammation” value in experiment [5] is recorded as “does not have any effect”. Moreover, in experiment [5] (sc), the “nociceptive threshold, Randall-Selitto test (paw pressure)” value is given as “higher nociceptive threshold”. Moreover, in experiment [1] (rat, in vivo), the antinociceptive activity was 35% and 39%. In experiment [6], the analgesic response entry is on record as “no analgesic response”; the “decrease in current and average pain intensity” value is “about 2 point”; the “most pain relief percentage” value was 89%; the pain score was 7 /10 and 4 /10. The relief of pain result in experiment [6] is recorded as “complete relief of their pain”. Also, in experiment [7], the effective dosage came to 2.5 µg/mg.
